Data as given in patent US10328104B2, “Methods for treating nuclear factor kappa-light-chain-enhancer of activated B cell (NF-κB) dysregulation in a host in need thereof using eggshell membrane compositions” (ESM TECHNOLOGIES, LLC, priority 2015, dated 2019).

Legend:
[1] = system: human suffering from cardiovascular disease (hypertension); experiment: Resting blood pressure in a human suffering from cardiovascular disease taking NEM orally, case report; format: in vivo; conditions: first subject; atenolol 100 mg/day, before NEM
Protocol: (§1) The following examples are illustrative of the efficacy of an orally administered eggshell membrane product (trade name NEM®) in treating a human suffering from cardiovascular disease. […] The subject was treating their hypertension with 100 mg/day of atenolol. […] The subject had also had four cardiac stents placed to treat atherosclerotic stenosis (narrowing) of various cardiac blood vessels. The subject consumed one 500 mg capsule per day of NEM® as prepared in Example 5 for about 12 months before noticing an effect on lipid panel results. The subject continued the NEM® regimen for an additional approximately 12 months (about 2 years total). Follow-up lipid panel results were: TC=138 mg/dL, LDL=80 mg/dL, HDL=41 mg/dL, and TG=84 mg/dL. […] The subject also found it necessary to reduce the atenolol dose from 100 mg/day to 25 mg/day.

[2] = system: human suffering from cardiovascular disease (hyperlipidemia, hypertriglyceridemia); experiment: Lipid panel in humans suffering from cardiovascular disease taking NEM orally, case reports; format: in vivo; conditions: second subject; treated with 10 mg/day atorvastatin, before NEM
Protocol: as §1
A second human with a recent history of cardiovascular disease (hyperlipidemia & hypertriglyceridemia only) was being treated with 10 mg/day of atorvastatin. Treated lipid panel results for this subject were: TC=207 mg/dL, LDL=114 mg/dL, HDL=47 mg/dL, and TG=247 mg/dL. […] The subject consumed one 500 mg capsule per day of NEM® as prepared in Example 5 for about 2 years. Follow-up lipid panel results were: TC=150 mg/dL, LDL=81 mg/dL, HDL=46 mg/dL, and TG=113 mg/dL.

Compound	resting diastolic blood pressure [1]	resting systolic blood pressure [1]	HDL [2]	LDL [2]	TG [2]	Total cholesterol (TC) [2]
CC(C)NCC(O)COc1ccc(CC(N)=O)cc1 (stereo not drawn) [atenolol]	84 mm Hg	146 mm Hg	–	–	–	–
CC(C)c1c(C(=O)Nc2ccccc2)c(-c2ccccc2)c(-c2ccc(F)cc2)n1CC[C@@H](O)C[C@@H](O)CC(=O)O [atorvastatin]	–	–	47 mg/dL	114 mg/dL	247 mg/dL	207 mg/dL
